Where two headings read alike, the source gives them in different places.

For assay [1], the system named is αSMA. Description: Phenotypic assay: high content aSMA staining in NHLF cells. To be noted: NHLF, 72 h incubation. It is filed as cell-based, Human. The procedure:
NHLF cells (Lonza #CC2512) were seeded as 2000 cells/well in 384-well plates in MEM medium w/o serine and glycine (Sigma #M2279)+1% pen/strep+5 mM L-glutamine +10% FBS and incubated overnight at 37° C., 5% CO2.
The next day, cells were washed with PBS and starvation MEM medium w/o serine and glycine (0% FBS) was added and cells were incubated overnight at 37° C., 5% CO2. The day after, cells were pre-incubated with compounds or vehicle (0.3% DMSO) for 1 h. Compounds were tested at 9 consecutive 3-fold dilutions starting from 30 μM. Each compound was tested in duplicate. Cells were further incubated for 72 h at 37° C., 5% CO2, 95% humidity. After 72 h of incubation, αSMA expression was quantified using immunostaining: • Fixation in 4% paraformaldehyde, • Blocking with 3% BSA, 2% FBS, 0.2% Triton-X in PBS, • Primary ab. anti-αSMA (AbCam #ab7817) diluted 500× in blocking buffer • Anti-mouse secondary ab. AF488 (ThermoFisher #A11029) • % of αSMA positive cells was determined by High Content Imaging (Molecular Device), data analysis was performed using MetaXpress software (Molecular Devices) and % of αSMA positive was further used to calculate % of inhibition for tested compounds. Total cell number was determined by Hoechst staining and % of viability over TGFβ stimulated controls was calculated.

Assay [2] concerns synthesis of 13C3-serine. Description: PK/PD model: in vivo [13C6] glucose tracing, inhibition of 13C3-serine synthesis. To be noted: for inhibition at 300 mg/kg: Mus musculus. On the set-up: species or system mouse male (C57BL/6J). The procedure: As PHGDH catalyzes the rate-limiting step of glucose-derived serine synthesis, a pharmacokinetic/pharmacodynamic (PK/PD) experiment aimed to assess the inhibition of the synthesis of ^13C3-serine after oral administration of ^13C6-glucose was performed in mouse male (C57BL/6J).
Animals were fasted overnight before treatment. Following 0.5 h from administration of either Compound 19 at dose of 300 mg/kg or vehicle (0.5% Tween 80, 0.5% Methylcellulose in H2O), ^13C6-glucose was administered by oral gavage (2 g/kg, Merck Life Science Srl). Blood, lung, and brain samples were collected at 1 h, 6.5 h and 24.5 h after treatment with Compound 19 or vehicle.
The tissue concentration of ^13C3-serine was determined by a liquid chromatography-tandem mass spectrometry (LC/MS/MS) assay. GraphPad Prism (version 8.1.2) was used for drawing graphs and for statistical analysis. Plasma or tissue homogenate samples (tissues were homogenized with a water/acetonitrile 50/50 mixture) were extracted with 3 volumes of acetonitrile. Supernanatant was injected into HPLC system (Agilent 1260 Quaternary Pump equipped with an Agilent 1200 High Performance Autosampler SL; Agilent), using a Kinetex EVO C18 analytical column (100 A, 50×2.1 mm, 2.6 μm; Phenomenex) for the analysis of Compound 19 or an InfinityLab Poroshell 120 Hilic-Z (50×2.1 mm 2.7 μm; Agilent) for the analysis of ^13C3-serine. The mobile phases consisted of 0.1% formic acid in water (solvent A) and 0.1% formic acid in acetonitrile (solvent B); chromatographic separation was performed with gradient elution method (see conditions below): • Compound 19 (0.0-0.5 min, 10% B; 0.5-3.0 min, gradient to 90% B; 3.0-5.0 min. 90% B; 5.0-6.0 min, gradient to 10% B; 6.0-10.0 min, 10% B—flow rate: 0.4 mL/min). • S^13C3-serine (0.0-0.5 min, 95% B; 0.5-4.0 min, gradient to 60% B; 4.0-5.0 min, 60% B; 5.0-6.0 min, gradient to 95% B; 6.0-10.0 min, 95% B—flow rate: 0.4 mL/min).
Mass spectrometric analysis was performed on a linear ion trap triple quadrupole mass spectrometer (4000 Q TRAP; AB SCIEX) equipped with a turbo spray ion source; mass spectrometer was operated in positive ion mode and quantification was achieved by multiple reaction monitoring (MRM) mode. Peak integration was performed using Analyst (version 1.6.2.). GraphPad Prism (version 8.1.2) was used for drawing graphs and for statistical analysis.
After 0.5 h from administration of Compound 19a at dose of 3, 10, 30, 100 and 300 mg/kg po, Compound 19 at dose of 300 mg/kg po or vehicle po (0.5% Tween 80, 0.5% Methylcellulose in H2O), mice received ^13C6-glucose by oral gavage (2 g/kg, Merck Life Science Srl). […] Blood was withdrawn by cardiac puncture and collected in heparin tubes.

For assay [3], the system named is collagen I (Col-I). Description: TGF-b induced Collagen I expression in NHLFs (Western blot). It counts as cell-based, Human. To be noted: NHLF. The text has this: The antifibrotic activity of compounds of the present invention has been monitored measuring the expression of fibrotic mediators, collagen I (Col-I) and alpha smooth muscle actin (α-SMA) after treatment in lung cells with TGF-β in comparison with Nintedanib (see Frank Hilberg et al, Cancer Res 2008 Jun. 15; 68(12):4774-82), and allosteric inhibitor NCT-503 (see Hamanaka et al., Am J Respir Cell Mol Biol. 2018 May; 58(5):585-593).
Human normal lung fibroblasts (NHLFs) were purchased from Lonza (Basel, Switzerland). NHFLs were cultured in Eagle's Minimum Essential medium (EMEM) w/o serine and glycine, supplemented with 10% Fetal Bovine Serum (FBS), antibiotics (50 U/ml penicillin and 0.05 mg/ml streptomycin) and 2 mM L-glutamine, in an atmosphere of 95% air and 5% CO2 at 37° C. NHLFs cultures were used between passage 1 and 9. Before all the experiments, cells were incubated overnight in serum-free medium.
NHLFs were seeded in 12-well plates at cultured until 70% of confluency. To examine the expression of fibrotic markers, cells were treated with different concentrations of Compounds and NCT-503 in EMEM medium for 1 h followed by stimulation with TGF-β for 48 h at 37° C., 5% CO2. […] Detection and quantification were performed with Odyssey imaging system (Li-cor) using GAPDH as loading control.

For `CC(C)C(C(=O)O)c1ccc(C2(NC(=O)c3cc4c(Cl)c(Cl)ccc4n3C)CCOC2)cc1` (racemic) [Compound 19, (±)-2-(4-(3-(4,5-Dichloro-1-methyl-1H-indole-2-carboxamido)tetrahydro-furan-3-yl)phenyl)-3-methylbutanoic acid], the “aSMA pIC50” value in assay [1] was found to be 5.9. Besides, the “brain serine concentration (in words)” value in assay [2] (300 mg/kg po, 1 h) was “without reaching the statistical significance”. The “inhibition of labelled serine in brain” value in assay [2] (300 mg/kg, any timepoint (1, 6.5, 24.5 h)) is given as “no significant inhibition”. In addition, the inhibition at 300 mg/kg is 85% in assay [2] (300 mg/kg po, 1 h, read-out: inhibition of labelled serine in lung); 87% in assay [2] (300 mg/kg po, 1 h, read-out: inhibition of labelled serine in plasma); 70 to 85% in assay [2] (300 mg/kg, at 1 and 6.5 h, read-out: inhibition of labelled serine in plasma and lung). For the same compound, the IC50 in assay [3] (Homo sapiens, TGF-β 48 h, confidence interval in brackets, read-out: TGF-b induced Collagen I (pIC50-C.I.) (converted)) is 31.6 nM. In addition, the “FMT induced by TGF-β, Collagen protein expression (FIG. 1)” value in assay [3] is reported as “decrease of Collagen protein expression”.

(Values after patent US20260207551A1, “PHOSPHOGLICERATE DEHYDROGENASE INHIBITORS FOR THE TREATMENT OF FIBROSIS” (CHIESI FARMACEUTICI S.P.A., priority 2022, published 2026).)
